Experimental data taken from US5013722A, “Cholecystokinin analogs for controlling appetite” (Hoffmann-LaRoche Inc., priority 1989, dated 1991).
Where a SMILES comes first, the peptide text is derived from it. Where no end group is shown, it is not given here. [ ]: non-standard residue; d: D form. The star is where a group is joined. Thr(SO3H) = C[C@@H](OS(=O)(=O)O)[C@H](N)C(=O)O; sY = N[C@@H](Cc1ccc(OS(=O)(=O)O)cc1)C(=O)O; NMeF = CN[C@@H](Cc1ccccc1)C(=O)O; Nle = CCCC[C@H](N)C(=O)O; For = O=C*

What was measured:
[1] = system: Male rats, food intake; assay: Two-meal feeding assay, intranasal administration; format: in vivo, rat
Protocol: (§1) Male Sprague-Dawley (CD) rats weighing 180-200 grams (Charles River Breeding Laboratories) were acclimated to a 12 h light/dark cycle (6 a.m. to 6 p.m.) in a room kept at 22° C. They were subsequently fasted for two days, weighed, placed in individual cages, and a four-day period of meal training was begun. During this time the rats were given ground laboratory chow (Purina Lab Chow) in jars for one hour from 9:00 a.m. until 10:00 a.m., the jars were removed from 10:00 a.m. to 12:00 p.m., and placed back in the cages from 12:00 until 1:00 p.m. Under this `1-2-1` meal feeding regime most rats learn to eat approximately as much Per day during the two hours they have access to food as rats which have food ad libitum over the entire 24-hour day. On the fourth day, the rats were weighed again, and any which lost more than five grams body weight were excluded from the test. The animals were then distributed into experimental (n=5 to 6) and control groups (n=6-12). but not matched for body weight.
Male rats were meal trained as described in Example 9. The peptide of Example 2 was dissolved in saline and was administered to the rats intranasally. CCK-8, dissolved in saline was used as a control.

[2] = system: lean and obese men, food intake; conditions: cited from earlier work
[3] = molecular target: T1, Rat kidney metalloendopeptidase (Rattus norvegicus, UniProt P07861); assay: Degradation by rat kidney metalloendopeptidase (HPLC); format: in vitro ADME; conditions: for % Degradation by Height: 37° C., pH 7.6
T1 construct: from tissue; host or cells: rat kidney
T1 sequence (P07861 1-750): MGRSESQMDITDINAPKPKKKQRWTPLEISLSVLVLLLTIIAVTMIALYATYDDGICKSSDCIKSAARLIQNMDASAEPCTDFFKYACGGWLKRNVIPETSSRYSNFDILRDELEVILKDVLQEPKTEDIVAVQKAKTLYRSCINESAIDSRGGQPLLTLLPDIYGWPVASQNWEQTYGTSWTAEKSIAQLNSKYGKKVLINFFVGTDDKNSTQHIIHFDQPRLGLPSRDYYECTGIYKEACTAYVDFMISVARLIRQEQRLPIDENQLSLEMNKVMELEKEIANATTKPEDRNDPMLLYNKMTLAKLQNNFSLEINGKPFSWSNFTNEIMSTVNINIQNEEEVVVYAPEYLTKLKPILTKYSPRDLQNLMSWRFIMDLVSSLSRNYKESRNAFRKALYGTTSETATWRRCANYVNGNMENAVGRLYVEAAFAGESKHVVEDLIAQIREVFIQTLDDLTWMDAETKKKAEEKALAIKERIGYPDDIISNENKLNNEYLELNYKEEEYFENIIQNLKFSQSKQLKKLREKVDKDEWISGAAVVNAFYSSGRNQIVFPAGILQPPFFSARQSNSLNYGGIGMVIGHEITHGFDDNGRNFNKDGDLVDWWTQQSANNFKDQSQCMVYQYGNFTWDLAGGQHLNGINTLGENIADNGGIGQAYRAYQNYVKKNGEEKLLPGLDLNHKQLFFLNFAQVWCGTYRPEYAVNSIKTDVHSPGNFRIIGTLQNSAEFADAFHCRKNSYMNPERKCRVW
Protocol: Rat kidney metalloendopeptidase (0.01 μg) and 5 nmol of peptide were incubated in 2 μmol tris-HCl buffer (pH 7.6) and at 37° C. for varying periods of time. The degradation of the peptide was monitored by analytical HPLC on a 5 micron Adsorbosphere-ODS column with a 0-50% CH3 CN gradient in 0.1N potassium phosphate, pH 3.0, with UV detection at 210 nm. Rates are based on presumed production of Asp-Tyr(SO3 H)-Met-Gly for CCK-8 and the presumed production of Ac-Tyr(SO3 H)-Met-Gly for Example 2 and 3.

[4] = system: Male Sprague-Dawley (CD) rats, food intake; assay: Two-meal feeding assay, intraperitoneal administration; format: in vivo, rat; conditions: 32 microgm/Kg i.p., mean ± SEM; for Food Intake 1st Meal: 15 min before first meal
Protocol: as §1
Peptides of the invention were suspended either in saline. if soluble, or in 1% gum arabic, if insoluble, at concentrations of 0 to 320 μg/ml/kg body weight and were administered intraperitonerally 15 min before the first meal on day 5 of meal feeding. The rats were then given their meals as they had been during the previous four days, and the food cups were weighed both before and after each meal to determine food consumption. Food intake was expressed as a mean and standard error of the mean in grams consumed or as a percent of control values for the various groups. The treated groups were compared to the control groups by t-test analysis. […]

[5] = molecular target: T2, receptors in rat pancreas (3H-CCK-8-(SO3 H) binding) (Rattus norvegicus, UniProt P30551); assay: In vitro receptor binding assay, rat pancreas homogenate, 3H-CCK-8-(SO3H) radioligand
T2 construct: receptors in homogenized preparations of rat pancreatic cells and bovine striata; from tissue; host or cells: rat pancreas homogenate (48,000 x g pellet)
T2 sequence (P30551 1-444): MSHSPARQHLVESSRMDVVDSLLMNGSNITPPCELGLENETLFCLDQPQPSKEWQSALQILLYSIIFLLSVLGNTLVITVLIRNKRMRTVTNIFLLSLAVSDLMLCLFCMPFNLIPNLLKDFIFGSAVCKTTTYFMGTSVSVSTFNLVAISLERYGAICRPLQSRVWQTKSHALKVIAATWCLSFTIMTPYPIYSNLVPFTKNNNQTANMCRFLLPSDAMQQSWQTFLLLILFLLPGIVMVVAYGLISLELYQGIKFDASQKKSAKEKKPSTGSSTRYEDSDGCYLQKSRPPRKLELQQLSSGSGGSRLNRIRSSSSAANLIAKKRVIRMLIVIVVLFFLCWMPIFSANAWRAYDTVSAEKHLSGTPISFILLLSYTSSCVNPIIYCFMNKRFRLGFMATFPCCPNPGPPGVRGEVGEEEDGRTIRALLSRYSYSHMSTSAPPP
Protocol: This strategy was utilized to minimize central nervous system side effects by identifying peptides with peripheral receptor selectivity. […] The tissue was homogenized 2 x for approx. 15 sec. at 0° C. using a Polytron homogenizer at a setting of 6. The tissue was isolated by centrifugation at 48,000 x g for 10 min. at 0° C. […] Samples were incubated for 30 min. at 25° C. and the incubation terminated by pouring the mixture onto a pre-wet Whatman GF/B filter on a Sandbeck Vacuum Filtration Manifold. The incubation tubes were washed with 2×3 ml of ice-cold HEPES Buffer #2 and the wash filtered through the GF/B filter. The filter was air dried for 10 min. and then placed in a scintillation vial with 12 ml of Beckman HP/b Ready-Solv scintillation cocktail. The vials were shaken for 2 hours and then counted using a Beckman Model 7800 liquid scintillation spectrometer.

[6] = molecular target: T3, receptors in bovine striatum (3H-CCK-8-(SO3 H) binding, central receptor) (Bos taurus, UniProt P79266); assay: In vitro receptor binding assay, bovine striatum homogenate, 3H-CCK-8-(SO3H) radioligand; conditions: 0.15 nM radioligand, 30 min, 25° C.; read-out: Bovine Striatum IC50 (inhibition of specific 3H-CCK-8-(SO3H) binding)
T3 construct: receptors in homogenized preparations of rat pancreatic cells and bovine striata; from tissue; host or cells: bovine striatum homogenate (48,000 x g pellet)
T3 sequence (P79266 1-454): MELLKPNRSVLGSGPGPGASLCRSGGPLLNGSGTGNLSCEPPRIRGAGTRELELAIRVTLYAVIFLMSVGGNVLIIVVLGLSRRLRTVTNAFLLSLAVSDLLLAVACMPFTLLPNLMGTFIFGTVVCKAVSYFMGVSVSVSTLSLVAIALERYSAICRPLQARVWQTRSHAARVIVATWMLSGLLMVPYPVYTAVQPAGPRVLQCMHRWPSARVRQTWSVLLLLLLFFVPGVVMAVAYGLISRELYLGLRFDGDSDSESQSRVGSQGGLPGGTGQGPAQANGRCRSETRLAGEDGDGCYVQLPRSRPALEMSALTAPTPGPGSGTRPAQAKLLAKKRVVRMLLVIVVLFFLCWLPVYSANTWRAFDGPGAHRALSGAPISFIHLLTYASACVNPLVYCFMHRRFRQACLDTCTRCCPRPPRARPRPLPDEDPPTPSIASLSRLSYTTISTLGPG
Protocol: Frozen bovine striatum (approx. 5 g) and fresh rat pancreas (approx. 5 g) cleaned of fat and extraneous tissue were homogenized in HEPES buffer #1 (10 mM HEPES+130 mM NaCl+5 mM MgCl2. pH 7.4) using 35 parts buffer per 1 part tissue on a wet weight/volume basis (approx. 175 ml). The tissue was homogenized 2 x for approx. 15 sec. at 0° C. using a Polytron homogenizer at a setting of 6. The tissue was isolated by centrifugation at 48,000 x g for 10 min. at 0° C. The resulting tissue pellet was resuspended in HEPES buffer #2 (10 mM HEPES+130 mM NaCl+5 mM MgCl2 +1 mg/L phenylmethanesulfonyl fluoride (PMSF)+200 mg/L Bacitracin): 1 part striatal tissue (original wet weight) per 80 parts buffer and 1 part pancreas tissue (original wet weight) per 70 parts buffer.
Incubation was initiated by combining various concentrations of native CCK-8 or peptides of formula I, II and III with ^3 H-CCK-8-(SO3 H) (final conc.=0.15 nM) and tissue homogenate (striatum 0.26 mg protein in 2 ml final volume; pancreas 0.165 mg protein in 1 ml final volume). Samples were incubated for 30 min. at 25° C. and the incubation terminated by pouring the mixture onto a pre-wet Whatman GF/B filter on a Sandbeck Vacuum Filtration Manifold. The incubation tubes were washed with 2×3 ml of ice-cold HEPES Buffer #2 and the wash filtered through the GF/B filter. The filter was air dried for 10 min. and then placed in a scintillation vial with 12 ml of Beckman HP/b Ready-Solv scintillation cocktail. The vials were shaken for 2 hours and then counted using a Beckman Model 7800 liquid scintillation spectrometer. Non-specific binding was determined in the presence of 1 micromole native CCK-8 and subtracted from all samples to determine specific binding. The concentration of ^3 peptide necessary to inhibit 50% of total specific H-CCK-8-(SO3 H) binding (IC50 value) was determined by log-probit analysis.

[7] = system: rat and monkey, satiety; conditions: cited from earlier work
[8] = 1000 μg/kg intranasal, saline = 100

% Degradation by Height ([3]; incubation 0 min)	% Degradation by Height ([3]; incubation 15 min)	% Degradation by Height ([3]; incubation 30 min)	No. of Peaks (degradation products) ([3]; incubation 60 min)	% Degradation by Height ([3]; incubation 60 min)	IC50 [6]	% Degradation by Height ([3]; incubation 120 min)	No. of Peaks (degradation products) ([3]; incubation 240 min)	% Degradation by Height ([3]; incubation 240 min)	IC50 ([5]; 0.15 nM radioligand, 30 min, 25° C., read-out: Rat Pancreas IC50 (inhibition of specific 3H-CCK-8-(SO3H) binding))	Molecule	Food Intake (activity in words) ([1]; 400 μg/kg intranasal)	Food Intake 1st meal Grams consumed ([1]; 1000 μg/kg intranasal)	Food Intake 2nd meal Grams consumed ([1]; 1000 μg/kg intranasal)	Food Intake 1st meal (%) [1, 8]	Food Intake 2nd meal (%) [1, 8]	Food intake after infusion [2]	Food Intake 1st Meal [4]	Food Intake 2nd Meal [4]	Binding selectivity, receptor sites in pancreas versus brain ([5]; rat pancreas vs bovine striatum)	Satiety after peripheral administration [7]
0%	6.2%	33.2%	4	69.7%						CSCC[C@H](NC(=O)[C@H](Cc1ccc(OS(=O)(=O)O)cc1)NC(=O)[C@@H](N)CC(=O)O)C(=O)NCC(=O)N[C@@H](Cc1c[nH]c2ccccc12)C(=O)N[C@@H](CCSC)C(=O)N[C@@H](CC(=O)O)C(=O)N[C@@H](Cc1ccccc1)C(N)=O [CCK-8, Asp--Tyr(SO3 H)--Met--Gly--Trp--Met--Asp--Phe--NH2, reference compound]	Inactive	4.9 ± 0.7 Grams	6.3 ± 05 Grams	66%	112%	decrease food intake in lean and obese men	27 ± 17 % of Control	149 ± 6 % of Control	binds to receptor sites in the pancreas and brain	
0%				0%	0.1 µM	0%	0	0%	0.1 µM	CCCC[C@H](NC(=O)[C@H](Cc1ccc(OS(=O)(=O)O)cc1)NC(C)=O)C(=O)N[C@H](C)C(=O)N[C@@H](Cc1cn(C=O)c2ccccc12)C(=O)N[C@@H](CCSC)C(=O)N[C@H](C(=O)N(C)[C@@H](Cc1ccccc1)C(N)=O)[C@@H](C)OS(=O)(=O)O [Example 3, Ac-Tyr-(SO3 H)-Nle-(D)Ala-Trp(For)-Met-Thr(SO3 H)-N-methyl-Phe-NH2] (Ac-[sY][Nle][dA]W(For)M[Thr(SO3H)][NMeF]-NH2)							34 ± 6 % of Control	164 ± 16 % of Control		
										Cholecystokinin (KAPSGRVSMIKNLQSLDPSHRISDRDYMGWMDF; ends and bridges not checked; UniProt P01356 70-102, looked up) [CCK, polypeptide hormone first isolated as a 33-amino acid peptide from the porcine gastrointestinal tract]										produce satiety in the rat and the monkey
